Toxic doses and inconclusive results are not listed.
Test system: L1210 leukemia ip in BDF1 mice, survival T/C
Experiment: NCI In Vivo Anticancer Drug Screen. Data for tumor model L1210 Leukemia (intraperitoneal) in B6D2F1 (BDF1) mice
Conditions: endpoint: mean survival time, higher = longer survival
How it was run: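 Value reflects the ratio of survival in compound-treated mice to survival in vehicle-treated controls, with both groups carrying the same transplanted tumor.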

[1] = dose: 100.0 mg/kg/injection, schedule: Q01DX009 (ip), vehicle: Klucel (hydroxypropylcellulose) (HPC)
[2] = dose: 200.0 mg/kg/injection, schedule: Q01DX009 (ip), vehicle: Klucel (hydroxypropylcellulose) (HPC)
[3] = dose: 400.0 mg/kg/injection, schedule: Q01DX009 (ip), vehicle: Klucel (hydroxypropylcellulose) (HPC)
[4] = dose: 100.0 mg/kg/injection, schedule: Q04DX003 (ip), vehicle: Klucel (hydroxypropylcellulose) (HPC)
[5] = dose: 200.0 mg/kg/injection, schedule: Q04DX003 (ip), vehicle: Klucel (hydroxypropylcellulose) (HPC)
[6] = dose: 400.0 mg/kg/injection, schedule: Q04DX003 (ip), vehicle: Klucel (hydroxypropylcellulose) (HPC)
[7] = dose: 100.0 mg/kg/injection, schedule: Q01DX001 (ip), vehicle: saline

Cc1ccc(NC(=S)NCCc2ccccn2)cc1C
T/C [1]: 96 % of control | T/C [2]: 99 % of control | T/C [3]: 91 % of control

COc1cc2c(cc1OC)/C(=C\C(=O)N1CCCC1=O)CCC2
T/C [1]: 96 % of control | T/C [4]: 104 % of control | T/C [2]: 97 % of control | T/C [5]: 102 % of control | T/C [3]: 94 % of control | T/C [6]: 101 % of control

O=C(O)C(SCc1ccccc1)c1ccccc1 (configuration not stated)
T/C [7]: 91 % of control | T/C (dose: 100.0 mg/kg/injection, schedule: Q04DX003 (ip), vehicle: saline with Tween-80): 95 % of control | T/C (dose: 200.0 mg/kg/injection, schedule: Q01DX001 (ip), vehicle: saline): 98 % of control | T/C (dose: 200.0 mg/kg/injection, schedule: Q04DX003 (ip), vehicle: saline with Tween-80): 95 % of control | T/C (dose: 400.0 mg/kg/injection, schedule: Q01DX001 (ip), vehicle: saline): 92 % of control | T/C (dose: 400.0 mg/kg/injection, schedule: Q04DX003 (ip), vehicle: saline with Tween-80): 101 % of control

ClCc1c(Cl)c(Cl)c(Cl)c(CCl)c1Cl
T/C [1]: 98 % of control | T/C [4]: 96 % of control | T/C [2]: 96 % of control | T/C [5]: 98 % of control | T/C [6]: 102 % of control

CS(=O)(=O)Nc1ccc(Nc2c3ccccc3nc3cc(N)ccc23)cc1
T/C (dose: 0.4 mg/kg/injection, schedule: Q01DX009 (ip), vehicle: saline): 152 % of control | T/C (dose: 1.25 mg/kg/injection, schedule: Q01DX009 (ip), vehicle: saline): 100 % of control | T/C (dose: 4.0 mg/kg/injection, schedule: Q01DX009 (sc), vehicle: saline): 123 % of control | T/C (dose: 5.0 mg/kg/injection, schedule: Q01DX009 (ip), vehicle: saline): 88 % of control | T/C (dose: 20.0 mg/kg/injection, schedule: Q01DX001 (ip), vehicle: saline): 92 % of control | T/C (dose: 40.0 mg/kg/injection, schedule: Q01DX001 (ip), vehicle: saline): 89 % of control

Cc1ccc(S(=O)(=O)OCCN(CCOS(=O)(=O)c2ccc(C)cc2)c2ccccc2)cc1
T/C (dose: 7.5 mg/kg/injection, schedule: Q01DX015 (ip), vehicle: carboxymethylcellulose (CMC)): 109 % of control | T/C (dose: 50.0 mg/kg/injection, schedule: Q01DX001 (ip), vehicle: saline): 117 % of control | T/C (dose: 60.0 mg/kg/injection, schedule: Q01DX015 (ip), vehicle: carboxymethylcellulose (CMC)): 122 % of control | T/C [7]: 115 % of control

O=C(Nc1ccc2c(c1)Cc1cccc(NC(=O)C(Cl)Cl)c1-2)C(Cl)Cl
T/C (dose: 50.0 mg/kg/injection, schedule: Q01DX009 (ip), vehicle: Klucel (hydroxypropylcellulose) (HPC)): 95 % of control | T/C [2]: 89 % of control

CC1([N+](=O)[O-])COCOC1
T/C (dose: 100.0 mg/kg/injection, schedule: Q04DX003 (ip), vehicle: saline): 103 % of control | T/C (dose: 200.0 mg/kg/injection, schedule: Q04DX003 (ip), vehicle: saline): 95 % of control | T/C (dose: 400.0 mg/kg/injection, schedule: Q04DX003 (ip), vehicle: saline): 94 % of control

NC1CONC1=O (configuration not stated)
T/C (dose: 100.0 mg/kg/injection, schedule: Q01DX009 (ip), vehicle: saline with Tween-80): 101 % of control | T/C (dose: 200.0 mg/kg/injection, schedule: Q01DX009 (ip), vehicle: saline with Tween-80): 98 % of control | T/C (dose: 400.0 mg/kg/injection, schedule: Q01DX009 (ip), vehicle: saline with Tween-80): 98 % of control

CCCCCCCCCC/C=N/Nc1ccc([N+](=O)[O-])cc1[N+](=O)[O-]
T/C (dose: 50.0 mg/kg/injection, schedule: Q01DX001 (ip), vehicle: saline with Tween-80): 93 % of control | T/C (dose: 100.0 mg/kg/injection, schedule: Q01DX001 (ip), vehicle: saline with Tween-80): 92 % of control | T/C (dose: 200.0 mg/kg/injection, schedule: Q01DX001 (ip), vehicle: saline with Tween-80): 93 % of control

CS(=O)(=O)OCC(O)C(O)C(O)C(O)COS(C)(=O)=O (configuration not stated)
T/C (dose: 100.0 mg/kg/injection, schedule: Q01DX001 (ip), vehicle: carboxymethylcellulose (CMC)): 98 % of control | T/C (dose: 200.0 mg/kg/injection, schedule: Q01DX001 (ip), vehicle: carboxymethylcellulose (CMC)): 92 % of control | T/C (dose: 400.0 mg/kg/injection, schedule: Q01DX001 (ip), vehicle: carboxymethylcellulose (CMC)): 103 % of control

COc1ccccc1-n1c(=O)c(N=Nc2ccc(Cl)cc2)c(O)n(-c2ccccc2C)c1=S
T/C (dose: 75.0 mg/kg/injection, schedule: Q04DX003 (ip), vehicle: Klucel (hydroxypropylcellulose) (HPC)): 94 % of control | T/C (dose: 150.0 mg/kg/injection, schedule: Q04DX003 (ip), vehicle: Klucel (hydroxypropylcellulose) (HPC)): 107 % of control | T/C (dose: 300.0 mg/kg/injection, schedule: Q04DX003 (ip), vehicle: Klucel (hydroxypropylcellulose) (HPC)): 104 % of control

— PubChem BioAssay AID248 (DTP/NCI, 2004)
